The text below walks through data of paper PMC7892475, “C-Terminal Amination of a Cationic Anti-Inflammatory Peptide Improves Bioavailability and Inhibitory Activity Against LPS-Induced Inflammation” (Frontiers in Immunology, 2021).

Data set [1] is described as follows: Reverse-phase HPLC retention time as measure of peptide hydrophobicity. The data set is classed as physicochemical. The conditions noted are these: HPLC on reverse-phase matrix, aqueous solution; used by the paper as measure of hydrophobicity. The source says: The retention time of peptides on a reverse-phase matrix has been reported to be related to peptide hydrophobicity ([34]).

The subject of data set [2] is RAW264.7 cells. Nature of the data set: CCK-8 cell viability assay. The data set is classed as cell-based, mouse. Particulars: RAW264.7 macrophages, CCK-8, 0 to 80 μg/ml, 24 h or 72 h, 37°C. The procedure:
The viability of peptide-treated RAW264.7 cells was determined using a Cell Counting Kit-8 (CCK-8) Assay Kit (Dojindo) ([35]). RAW264.7 cells were plated in 96-well plates at a density of 3×10^4 cells/ml in 100 μl DMEM overnight. The cell culture medium was then supplemented with fresh medium containing candidate peptides in a series of concentrations, and the plates were incubated for another 24 h or 72 h. Each well was incubated with 10 μl CCK-8 solution for 4 h in the dark. Afterwards, the absorbance at 450 nm was measured using a microplate reader. Cell viability was determined by:
Cell viability (%)=(OD450sample/OD450(control))×100%
In general terms: Tetrazolium dyes change colour on reduction, which living cells bring about.

The test system of data set [3] is RAW264.7 cells. Nature of the data set: Cellular uptake and localization of FITC-labeled peptides (confocal microscopy, flow cytometry). The data set is classed as cell-based, mouse. Particulars: N-terminus FITC-labeled peptide, 10 μg/ml, 24 h, 37°C, confocal microscopy and flow cytometry (average FITC intensity). The procedure: RAW264.7 cells were treated with N-terminus FITC-labeled peptides at 10 μg/ml for 24 h at 37°C; in the dark. Then, the RAW264.7 cells were rinsed with PBS three times, fixed with paraformaldehyde and washed with PBS. The cell nuclei were stained with DAPI (diluted 1:500 in PBS) (Sigma, USA) for 5 min, and the cells were washed with PBS. The above cells were spread on a glass slide, fixed and observed with a Leica TCA sp5 confocal microscope (Germany).
RAW264.7 cells were stained with 10 μg/ml N-terminus FITC-labeled peptides at 37°C in the dark for 24 h. Afterwards, the RAW264.7 cells were harvested and rinsed with PBS five times. The average FITC intensity in the cells was measured via flow cytometry.
(In general: A flow cytometer gives signals particle by particle.)

The test system of the next data set is TLR4/MD-2 complex. Nature of the data set: Surface plasmon resonance binding. Particulars: SPR, Biacore X100, PBS with 0.05% Tween 20, 30 μl/min, 1:1 model, 0 to 10 μM. The procedure: SPR assays were performed using a Biacore X100 instrument (GE Healthcare, Pittsburgh, PA, USA). PBS containing 0.05% Tween 20 was used as the running buffer. The running buffer was continuously passed into the reaction chamber at 30 μl/min. Immobilization of CTP-NH2 on the chip surface was performed according to an amino coupling protocol. […] Running buffer was injected into the empty channel as a reference. To regenerate the chip surface at the end of each experiment, 10 mM Gly-HCl buffer (pH 2.5) was injected. ProteOn manager software (version 2.0) was used to analyze the experimental data. The binding curves were processed for the start injection alignment and baseline. A reference-subtracted sensorgram was then fitted to the curves describing a homogeneous 1:1 model. Data from the protein surfaces were grouped together to fit the association kinetic rate constant (Ka) and the dissociation rate constant (Kd). The equilibrium dissociation constant (KD) for the peptide-TLR4/MD-2 interaction was calculated as follows: […]
On the technique in general: In SPR one partner is held on a chip, and binding of the other changes the refractive index at the surface.

In data set [1], “RWGRFLRKIRRFRRKDVT-NH2 [CTP-NH2, C-terminal amidated derivative peptide of CTP]” returned a Retention time of 11.96 min. For the same substance, the “cytotoxicity (comparison in words)” value in the data set with RAW264.7 cells [2] is “less cytotoxicity than CTP”. For the same substance, the “cellular uptake and localization” value with RAW264.7 cells [3] is “significant cellular uptake and a dispersed distribution compared with CTP”. In the data set on TLR4/MD-2 complex, this substance showed a Ka (association kinetic rate constant) of 1.65e+07 M⁻¹ s⁻¹.
